# Assay results reported in patent US20250197359A1, “CANNABINOID RECEPTOR MODULATING COMPOUNDS” (The U.S.A., as Represented by the Secretary, Department of …, priority 2022, published 2025).
# Tests used:
# [1] = target: T1, Brain/CB1 (Mus musculus, UniProt P47746); assay: Functional GTPγS binding, Brain/CB1; type: biochemical
# T1 construct: from tissue; host or cells: mouse brain membranes
# Text: Furthermore, the intermediates urea compounds 8a-m were chlorinated with phosphorus oxychloride in the presence of DIPEA base to form imidoyl chloride intermediate and reacted with acetamidine hydrochloride/methyl carbamimidothioate iodide/methyl carbamimidoselenoate iodide and other amines to furnish the target compounds (10a-34b) (Scheme 2, FIG. 2, Scheme 5, FIG. 5). The urea derivatives were converted to the thiourea derivatives 9a-9d by employing sodium thiosulfate. Compound 8a-b, 8e-f were converted to corresponding thiourea by employing sodium thiosulfate dissolved in water dioxane mixture and the reaction was heated to 85° C. for 2 h. […] The binding constant for the synthesized compounds were determined by using radioligand binding assay in mouse brain membranes as well as the target compounds were evaluated in vitro at the human CB1 receptor, stably expressed into Chinese hamster ovary (CHO) cells as well as mouse brain membrane CB1.
# [2] = target: CB1 (UniProt P21554); assay: CB1 radioligand binding assay; parameters: species or system human; conditions: read-out: Ki (CB1)
# Experimental: The target compounds were evaluated in vitro at the human CB1 receptor, stably expressed into Chinese hamster ovary (CHO) cells by utilizing radioligand binding studies.
# The binding constant for the synthesized compounds were determined by using radioligand binding assay in mouse brain membranes as well as the target compounds were evaluated in vitro at the human CB1 receptor, stably expressed into Chinese hamster ovary (CHO) cells as well as mouse brain membrane CB1. […]
# T1 sequence (P47746 whole entry): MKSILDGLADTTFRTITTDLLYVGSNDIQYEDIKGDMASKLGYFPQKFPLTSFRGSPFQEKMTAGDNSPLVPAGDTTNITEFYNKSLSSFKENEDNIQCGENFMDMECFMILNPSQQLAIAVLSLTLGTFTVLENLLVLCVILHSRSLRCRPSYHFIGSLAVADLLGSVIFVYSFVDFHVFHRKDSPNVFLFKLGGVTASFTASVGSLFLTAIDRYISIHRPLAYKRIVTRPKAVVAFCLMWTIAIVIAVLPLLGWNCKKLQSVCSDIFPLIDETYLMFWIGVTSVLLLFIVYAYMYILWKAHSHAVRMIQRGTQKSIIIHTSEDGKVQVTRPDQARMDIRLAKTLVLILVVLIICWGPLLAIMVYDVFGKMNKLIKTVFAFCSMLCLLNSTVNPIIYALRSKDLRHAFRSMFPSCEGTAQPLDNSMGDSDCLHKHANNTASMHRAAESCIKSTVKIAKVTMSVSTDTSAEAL
Structure (SMILES),IC50 [1],Ki [2]
"C/C(N)=N\C(=N\S(=O)(=O)c1ccc(C(F)(F)F)cc1)N1CCC(c2ccccc2)C(c2ccc(Cl)cc2)=N1 (single isomer, unassigned) [Compound 10bE2, (Z)—N—((E)-1-aminoethylidene)-3-(4-chlorophenyl)-4-phenyl-N′-((4-(trifluoromethyl)phenyl)sulfonyl)-5,6-dihydropyridazine-1 (4H)-carboximidamide]",34 nM,
"CC(C)(C)/C(N)=N/C(=N/S(=O)(=O)c1ccc(C(F)(F)F)cc1)N1CCC(c2ccccc2)C(c2ccc(Cl)cc2)=N1 (single isomer, unassigned) [Compound 10oE1, (Z)—N—((Z)-1-amino-2,2-dimethylpropylidene)-3-(4-chlorophenyl)-4-phenyl-N′-((4-(trifluoromethyl)phenyl)sulfonyl)-5,6-dihydropyridazine-1 (4H)-carboximidamide]",222 nM,351 nM
"CC(C)(C)/C(N)=N/C(=N/S(=O)(=O)c1ccc(C(F)(F)F)cc1)N1CCC(c2ccccc2)C(c2ccc(Cl)cc2)=N1 (single isomer, unassigned) [Compound 10oE2, (Z)—N—((Z)-1-amino-2,2-dimethylpropylidene)-3-(4-chlorophenyl)-4-phenyl-N′-((4-(trifluoromethyl)phenyl)sulfonyl)-5,6-dihydropyridazine-1 (4H)-carboximidamide]",11 nM,7.3 nM
"N/C(=N\C(=N\S(=O)(=O)c1ccc(C(F)(F)F)cc1)N1CCC(c2ccccc2)C(c2ccc(Cl)cc2)=N1)c1ccccc1F (single isomer, unassigned) [Compound 10tE1, (Z)—N—((Z)-amino (2-fluorophenyl)methylene)-3-(4-chlorophenyl)-4-phenyl-N′-((4-(trifluoromethyl)phenyl)sulfonyl)-5,6-dihydropyridazine-1 (4H)-carboximidamide]",51 nM,
"N/C(=N\C(=N\S(=O)(=O)c1ccc(C(F)(F)F)cc1)N1CCC(c2ccccc2)C(c2ccc(Cl)cc2)=N1)c1ccccc1F (single isomer, unassigned) [Compound 10tE2, (Z)—N—((Z)-amino (2-fluorophenyl)methylene)-3-(4-chlorophenyl)-4-phenyl-N′-((4-(trifluoromethyl)phenyl)sulfonyl)-5,6-dihydropyridazine-1 (4H)-carboximidamide]",18 nM,
"N/C(=N\C(=N\S(=O)(=O)c1ccc(C(F)(F)F)cc1)N1CCC(c2ccccc2)C(c2ccc(Cl)cc2)=N1)c1ccccn1 (single isomer, unassigned) [Compound 10vE1, (Z)—N—((Z)-amino (pyridin-2-yl)methylene)-3-(4-chlorophenyl)-4-phenyl-N′-((4-(trifluoromethyl)phenyl)sulfonyl)-5,6-dihydropyridazine-1 (4H)-carboximidamide]",107 nM,11.5 nM
"N/C(=N\C(=N\S(=O)(=O)c1ccc(C(F)(F)F)cc1)N1CCC(c2ccccc2)C(c2ccc(Cl)cc2)=N1)c1ccccn1 (single isomer, unassigned) [Compound 10vE2, (Z)—N—((Z)-amino (pyridin-2-yl)methylene)-3-(4-chlorophenyl)-4-phenyl-N′-((4-(trifluoromethyl)phenyl)sulfonyl)-5,6-dihydropyridazine-1 (4H)-carboximidamide]",24 nM,5 nM
"CC(C)C(N/C(=N/S(=O)(=O)c1ccc(C(F)(F)F)cc1)N1CCC(c2ccccc2)C(c2ccc(Br)cc2)=N1)C(N)=O (single isomer, unassigned) [Compound 26a, (Z)-2-(3-(4-bromophenyl)-4-phenyl-N′-((4-(trifluoromethyl)phenyl)sulfonyl)-1,4,5,6-tetrahydropyridazine-1-carboximidamido)-3-methylbutanamide]",> 1000 nM,
"CC(C)C(N/C(=N/S(=O)(=O)c1ccc(C(F)(F)F)cc1)N1CCC(c2ccccc2)C(c2ccc(Br)cc2)=N1)C(N)=O (single isomer, unassigned) [Compound 26b, (Z)-2-(3-(4-bromophenyl)-4-phenyl-N′-((4-(trifluoromethyl)phenyl)sulfonyl)-1,4,5,6-tetrahydropyridazine-1-carboximidamido)-3-methylbutanamide]",9.5 nM,
"COc1ccc(S(=O)(=O)/N=C(/NC(C(N)=O)C(C)C)N2CCC(c3ccccc3)C(c3ccc(Cl)cc3)=N2)cc1 (single isomer, unassigned) [Compound 27a, (Z)-2-(3-(4-chlorophenyl)-N′-((4-methoxyphenyl)sulfonyl)-4-phenyl-1,4,5,6-tetrahydropyridazine-1-carboximidamido)-3-methylbutanamide]",> 1000 nM,
"COc1ccc(S(=O)(=O)/N=C(/NC(C(N)=O)C(C)C)N2CCC(c3ccccc3)C(c3ccc(Cl)cc3)=N2)cc1 (single isomer, unassigned) [Compound 27b, (Z)-2-(3-(4-chlorophenyl)-N′-((4-methoxyphenyl)sulfonyl)-4-phenyl-1,4,5,6-tetrahydropyridazine-1-carboximidamido)-3-methylbutanamide]",51 nM,
"CC(C)C(N/C(=N/S(=O)(=O)c1ccccc1)N1CCC(c2ccccc2)C(c2ccc(Cl)cc2)=N1)C(N)=O (single isomer, unassigned) [Compound 28a, (Z)-2-(3-(4-chlorophenyl)-4-phenyl-N′-(phenylsulfonyl)-1,4,5,6-tetrahydropyridazine-1-carboximidamido)-3-methylbutanamide]",> 1000 nM,
"CC(C)C(N/C(=N/S(=O)(=O)c1ccccc1)N1CCC(c2ccccc2)C(c2ccc(Cl)cc2)=N1)C(N)=O (single isomer, unassigned) [Compound 28b, (Z)-2-(3-(4-chlorophenyl)-4-phenyl-N′-(phenylsulfonyl)-1,4,5,6-tetrahydropyridazine-1-carboximidamido)-3-methylbutanamide]",336 nM,
"CC(C)C(N/C(=N/S(=O)(=O)c1ccc(Cl)cc1)N1CCC(c2ccccc2)C(c2ccc(Cl)cc2)=N1)C(N)=O (single isomer, unassigned) [Compound 30a, (Z)-2-(3-(4-chlorophenyl)-N′-((4-chlorophenyl)sulfonyl)-4-phenyl-1,4,5,6-tetrahydropyridazine-1-carboximidamido)-3-methylbutanamide]",> 1000 nM,907 nM
"CC(C)C(N/C(=N/S(=O)(=O)c1ccc(Cl)cc1)N1CCC(c2ccccc2)C(c2ccc(Cl)cc2)=N1)C(N)=O (single isomer, unassigned) [Compound 30b, (Z)-2-(3-(4-chlorophenyl)-N′-((4-chlorophenyl)sulfonyl)-4-phenyl-1,4,5,6-tetrahydropyridazine-1-carboximidamido)-3-methylbutanamide]",39 nM,18.2 nM
"CC(N/C(=N/S(=O)(=O)c1ccc(C(F)(F)F)cc1)N1CCC(c2ccccc2)C(c2ccc(Cl)cc2)=N1)C(N)=O (single isomer, unassigned) [Compound 31a, (Z)-2-(3-(4-chlorophenyl)-4-phenyl-N′-((4-(trifluoromethyl)phenyl)sulfonyl)-1,4,5,6-tetrahydropyridazine-1-carboximidamido) propenamide]",863 nM,96.9 nM
"CC(N/C(=N/S(=O)(=O)c1ccc(C(F)(F)F)cc1)N1CCC(c2ccccc2)C(c2ccc(Cl)cc2)=N1)C(N)=O (single isomer, unassigned) [Compound 31b, (Z)-2-(3-(4-chlorophenyl)-4-phenyl-N′-((4-(trifluoromethyl)phenyl)sulfonyl)-1,4,5,6-tetrahydropyridazine-1-carboximidamido) propenamide]",33 nM,8.05 nM
"CCC(N/C(=N/S(=O)(=O)c1ccc(C(F)(F)F)cc1)N1CCC(c2ccccc2)C(c2ccc(Cl)cc2)=N1)C(N)=O (single isomer, unassigned) [Compound 32b, (Z)-2-(3-(4-chlorophenyl)-4-phenyl-N′-((4-(trifluoromethyl)phenyl)sulfonyl)-1,4,5,6-tetrahydropyridazine-1-carboximidamido) butanamide]",174 nM,77.4 nM
"NC(=O)C(Cc1ccccc1)N/C(=N/S(=O)(=O)c1ccc(C(F)(F)F)cc1)N1CCC(c2ccccc2)C(c2ccc(Cl)cc2)=N1 (single isomer, unassigned) [Compound 33a, (Z)-2-(3-(4-chlorophenyl)-4-phenyl-N′-((4-(trifluoromethyl)phenyl)sulfonyl)-1,4,5,6-tetrahydropyridazine-1-carboximidamido)-3-phenylpropanamide]",423 nM,66.8 nM
"NC(=O)C(Cc1ccccc1)N/C(=N/S(=O)(=O)c1ccc(C(F)(F)F)cc1)N1CCC(c2ccccc2)C(c2ccc(Cl)cc2)=N1 (single isomer, unassigned) [Compound 33b, (Z)-2-(3-(4-chlorophenyl)-4-phenyl-N′-((4-(trifluoromethyl)phenyl)sulfonyl)-1,4,5,6-tetrahydropyridazine-1-carboximidamido)-3-phenylpropanamide]",12 nM,6.13 nM
"COC(=O)C(N/C(=N/S(=O)(=O)c1ccc(C(F)(F)F)cc1)N1CCC(c2ccccc2)C(c2ccc(Cl)cc2)=N1)C(C)C (single isomer, unassigned) [Compound 34a]",41 nM,46.4 nM
"COC(=O)C(N/C(=N/S(=O)(=O)c1ccc(C(F)(F)F)cc1)N1CCC(c2ccccc2)C(c2ccc(Cl)cc2)=N1)C(C)C (single isomer, unassigned) [Compound 34b]",17 nM,2.71 nM
